Type in all cases: physicochemical
The test system of data set [1] is recombinant FAD-GDH (rAT-FAD-GDH) derived from Aspergillus terreus. In words: Thermal stabilization effect of stabilizing agents on rAT-FAD-GDH in solution (Example 9). Particulars: for Residual activity ratio (%) / GLD activity value (U/ml) 50° C., 15 min: Table 10, buffer 50 mM K-PB, stabilizer at each final concentration described in Table 1; for Residual activity ratio (%): 50° C., 15 min versus 4° C.; for thermal stabilization effect on FAD-GDH (in words): rAT-FAD-GDH, 50° C. for 15 minutes, Example 9. How it is done: (§1) The reaction reagent (3 mL) is preliminarily heated at 37° C. for 5 minutes. The GDH solution (0.1 mL) is added and gently mixed, subsequently the change of absorbance at 600 nm is recorded for 5 minutes using the spectrophotometer controlled to 37° C. using water as the control, and the change of absorbance per one minute (ΔODTEST) is calculated from the linear portion of the record. The solvent in which GDH will be dissolved in place of the blinded GDH solution is added to the reagent mixture, and the change of absorbance (ΔODBLANK) per one minute is measured. The GDH activity is calculated from these values according to the following formula. One unit (U) in the GDH activity is defined as the amount of the enzyme which reduces […] DCPIP for one minute in the presence of 200 mM D-glucose.
Two tubes in which each stabilizing agent described in Table 1 had been added at each final concentration to 0.9 mL of this enzyme solution to make the total volume 1.0 mL were prepared.
In two tubes, one tube was stored at 4° C. and another tube was treated at 50° C. for 15 minutes. Then, the FAD-GDH activity in each tube was measured. The enzyme activity in the tube stored at 4° C. was made 100, and comparing with it, the activity value after being treated at 50° C. for 15 minutes was calculated as the residual activity ratio (%).

For data set [2], the system named is recombinant FAD-GDH (rAO-FAD-GDH) derived from Aspergillus oryzae. The data set can be described thus: Thermal stabilization effect of stabilizing agents on rAO-FAD-GDH in solution (Examples 3-6). The settings on record: for thermal stabilization effect on FAD-GDH (in words): rAO-FAD-GDH, 50° C. for 15 minutes, Example 3; for Residual activity ratio (%) after treatment at 50° C., 15 min: stabilizer final concentration 1%, rAO-FAD-GDH about 2 U/mL, 50 mM potassium phosphate buffer pH 5.5, 0.1% Triton X-100, 4° C. sample = 100; for GDH Residual activity ratio (%) after treatment at 50° C., 15 min: final concentration BSA 2.5%, serine 10%, alone or combined. How it is done:
Enhancement of the thermal stability referred to herein means increasing of a residual ratio (%) of the GDH enzyme kept after giving the treatment with heat at a certain temperature for a certain time period to the composition comprising the GDH enzyme. In the present invention, the activity in the sample stored at 4° C. which is nearly completely kept is made 100%, this is compared with the activity in the GDH solution after giving the treatment with heat at a certain-temperature for a certain time period, and the residual ratio of the enzyme is calculated.
In the method for measuring the activity described in the method for measuring the GDH enzyme activity described later, an activity value (a) of GDH in the solution stored at 4° C. and an activity value (b) of GDH after giving the treatment with heat at a certain temperature for a certain time period were measured, a relative value[(b)/(a)×100] when the activity value (a) was made 100 was calculated. This relative value was made the residual ratio (%). Comparing the presence with the absence of the added compound, when the residual ratio was increased by the addition of the compound, it was determined that the thermal stability was enhanced.
In the present invention, the activity of FAD-dependent GDH is measured as follows.
The reaction-reagent is made by mixing 15.6 mL of the PIPES buffer, 0.2 mL of the DCPIP solution and 4 mL of the D-glucose solution.
as §1, with “D-glucose. Activity (U/mL)=[−(ΔODTEST−ΔODBLANK)×3.0×dilution scale]/(16.3×0.1×1.0) In the above formula, 3.0 represents a liquid amount (mL) of the reaction reagent+the enzyme solution, 16.3 represents a millimolar molecular absorbance coefficient (cm^2/μmol) in the condition for measuring this enzyme, 0.1 represents the liquid amount of the enzyme solution (mL) and 1.0 represents a light path length (cm) of the cell.” for “D-glucose.”
The study was performed in accordance with the method for measuring the FAD-GDH activity in Test Example 1 described above.
First, 50 mL of an enzyme solution obtained by dissolving the recombinant FAD-GDH (rAO-FAD-GDH)-derived from Aspergillus oryzae obtained in Example 1 at about 2 U/mL in an enzyme dilution solution (50 mM potassium phosphate buffer, pH 5.5, 0.1% Triton X-100) was prepared. Two tubes in which each stabilizing agent described in Table 1 had been added at each final concentration to 0.9 mL of this enzyme solution to make the total volume 1.0 mL were prepared.
In two tubes, one tube was stored at […] and another tube was treated at 50° C. for 15 minutes. Then, the FAD-GDH activity in each tube was measured. The enzyme activity in the tube stored at 4° C. was made 100, and comparing with it, the activity value after being treated at 50° C. for 15 minutes was calculated as the residual activity ratio (%).
The method was in accordance with Example 3 described above.
The methods were in accordance with Example 3 above.

The test system is the same in data set [3]. Described as above.
Data set [4] has as its system recombinant FAD-GDH preparation (rAO-FAD-GDH) derived from Aspergillus oryzae. In words: Storage stability of freeze-dried (powdered) rAO-FAD-GDH with stabilizing agents (Example 8). The settings on record: for storage stabilization effect on the powdered enzyme (in words): Example 8, Tables 7 and 8; for GDH activity Residual ratio (%): 70% humidity. How it is done: as §1, with “D-glucose. Activity (U/mL)=[−(ΔODTEST−ΔODBLANK)×3.0×dilution scale]/(16.3×0.1×1.0) In the above formula, 3.0 represents a liquid amount (mL) of the reaction reagent+the enzyme solution, 16.3 represents a millimolar molecular absorbance coefficient (cm^2/μmol) in the condition for measuring this enzyme, 0.1 represents the liquid amount of the enzyme solution (mL) and 1.0 represents a light path length (cm) of the cell.” for “D-glucose.”
The study was performed using the recombinant FAD-GDH preparation (rAO-FAD-GDH) derived from Aspergillus oryzae obtained in Example 1 in accordance with the method for measuring the FAD-GDH activity in Test Example 1 above. The amount of the protein which occupied in the FAD-GDH enzyme solution was measured, and 1 mL of the solution in which the stabilizing agent corresponding to 60% or 30% relative to this had been dissolved therein was prepared.
Several vials in which 0.2 mL of the enzyme solution containing each stabilizing agent had been correctly dispensed were prepared. As the control, the vials in which the stabilizing agent had not been added was prepared. The prepared vials were subjected to vacuum freeze-dry (FDR) to completely evaporate the water. Then, only two samples in which the same stabilizing agent had been added were subjected to the measurement of the activity. Meanwhile, the remaining vials were treated at 25° C. at a humidity of 70% for several hours, and then stored at 37° C. for one week. Subsequently, the residual activity was measured. The residual activity ratio (%) was calculated by making the average activity immediately after FDR 100% and measuring the average activity of the samples after storing at 37° C.

The mark [5] stands for this setting: Table 4, each stabilizer at final concentration 1%, alone or in pairs.

As to `O=C[C@@H](O)[C@@H](O)[C@H](O)[C@H](O)CO` [D-(+)-mannose], in data set [1], the “Residual activity ratio (%)” value is reported as 16.5%; the “GLD activity value (U/ml) 50° C., 15 min” value turned out to be 0.448 U/ml; the “thermal stabilization effect on FAD-GDH (in words)” value was “high effect”. In addition, in data set [2], the “thermal stabilization effect on FAD-GDH (in words)” value is recorded as “high effect” and the “Residual activity ratio (%) after treatment at 50° C., 15 min” value is 65.3%. Moreover, in data set [3] (setting [5]), the “GDH Residual activity ratio (%) after treatment at 50° C., 30 min” value (shortened to “GDH Residual activity ratio (%) … 30 min”) was 47.78%.
With `O.O.OC[C@H]1O[C@H](O[C@H]2O[C@H](CO)[C@@H](O)[C@H](O)[C@H]2O)[C@H](O)[C@@H](O)[C@@H]1O` [D-(+)-trehalosedihydrate], in data set [1], the “Residual activity ratio (%)” value is given as 15.8%; the “GLD activity value (U/ml) 50° C., 15 min” value stood at 0.431 U/ml; the “thermal stabilization effect on FAD-GDH (in words)” value was “high effect”. Besides, in data set [2], the “thermal stabilization effect on FAD-GDH (in words)” value is reported as “high effect” and the “Residual activity ratio (%) after treatment at 50° C., 15 min” value is listed as 64.7%. For the same compound, in data set [3] (setting [5]), the “GDH Residual activity ratio (%) … 30 min” value is reported as 39.10%. The “GDH Residual activity ratio (%) … 30 min” value in data set [3] (final concentration 0.01%) is listed as 11.2%. The “GDH Residual activity ratio (%) … 30 min” value in data set [3] (final concentration 0.1%) was determined as 20.4%. Also, the “GDH Residual activity ratio (%) … 30 min” value in data set [3] (final concentration 1%) is listed as 42.3%. Moreover, the “thermal stabilization effect of trehalose (in words)” value in data set [3] (final concentration of 0.01%, 50° C., 30 min) is “the stabilization effect was exerted”. Besides, the “storage stabilization effect on the powdered enzyme (in words)” value in data set [4] was “enhance the stability”. Further, in data set [4] (Table 8, stabilizer 60%), the “GDH activity (U/vial) Immediately after pulverization” value turned out to be 401 U/vial and the “GDH activity (U/vial) Immediately before pulverization” value is recorded as 397 U/vial. Moreover, the “GDH activity Residual ratio (%)” value in data set [4] (Table 8, stabilizer 60%, 25° C., 7 h, then 37° C. for 1 week) stood at 48.6%. For the same compound, in data set [4] (Table 8, stabilizer 60%, after treatment at 70% humidity, 25° C., 7 h, then 37° C. for 1 week), the “GDH activity (U/vial) At 37° C. for 1 week” value turned out to be 195 U/vial.
Turning to `NCC(=O)O` [Glycine], in data set [1], the “Residual activity ratio (%)” value came to 3.3%; the “GLD activity value (U/ml) 50° C., 15 min” value was 0.094 U/ml; the “thermal stabilization effect on FAD-GDH (in words)” value is given as “high effect”. In addition, in data set [2], the “thermal stabilization effect on FAD-GDH (in words)” value is listed as “high effect” and the “Residual activity ratio (%) after treatment at 50° C., 15 min” value was 26.4%. The “GDH Residual activity ratio (%) … 30 min” value in data set [3] (setting [5]) is on record as 4.84%.
For `N[C@@H](CO)C(=O)O` [L-serine], in data set [1], the “Residual activity ratio (%)” value was 3.0%; the “GLD activity value (U/ml) 50° C., 15 min” value came to 0.078 U/ml; the “thermal stabilization effect on FAD-GDH (in words)” value is “high effect”. Also, in data set [2] (Table 3), the “GDH Residual activity ratio (%) after treatment at 50° C., 15 min” value is 33%. Further, the “GDH Residual activity ratio (%) after treatment at 50° C., 15 min” value in data set [2] (Table 3 second column) stood at 11.5%. For the same compound, in data set [2], the “thermal stabilization effect on FAD-GDH (in words)” value is given as “high effect” and the “Residual activity ratio (%) after treatment at 50° C., 15 min” value turned out to be 27.0%. Further, in data set [4], the “storage stabilization effect on the powdered enzyme (in words)” value was “enhance the stability”. Besides, the “GDH activity (kU/vial) Immediately after pulverization” value in data set [4] (Table 7, stabilizer 60% relative to FAD-GDH protein, vacuum freeze-dry) is recorded as 19.8 kU/vial. Further, the “GDH activity Residual ratio (%)” value in data set [4] (Table 7, stabilizer 60%, 25° C., 24 h, then 37° C. for 1 week, activity immediately after FDR = 100%) is 41.3%. The “GDH activity (kU/vial) After 1 week at 37° C.” value in data set [4] (Table 7, stabilizer 60%, after treatment at 70% humidity, 25° C., 24 h, then 37° C. for 1 week) was 8.2 kU/vial.
As for `O=C([O-])[C@H](O)[C@@H](O)[C@H](O)[C@H](O)CO.[Na+]` [sodium gluconate], in data set [1], the “Residual activity ratio (%)” value is recorded as 3.9%; the “GLD activity value (U/ml) 50° C., 15 min” value is 0.111 U/ml; the “thermal stabilization effect on FAD-GDH (in words)” value was “high effect”. In addition, in data set [2], the “thermal stabilization effect on FAD-GDH (in words)” value is “high effect” and the “Residual activity ratio (%) after treatment at 50° C., 15 min” value is 33.5%.
Turning to Inulin, in data set [1], the “Residual activity ratio (%)” value is given as 1.8% and the “GLD activity value (U/ml) 50° C., 15 min” value was 0.053 U/ml. Moreover, the “Residual activity ratio (%) after treatment at 50° C., 15 min” value in data set [2] stood at 24.7%.

The values are drawn from patent US20080090278A1, “METHOD FOR ENHANCING STABILITY OF A COMPOSITION COMPRISING SOLUBLE GLUCOSE DEHYDROGENASE (GDH)” (TOYO BOSEKI KABUSHIKI KAISHA, priority 2006, published 2008).
